# Assay results taken from patent US20130244875A1, “METHODS AND COMPOSITIONS FOR IMPROVING PLANT HEALTH” (priority 2006, published 2013).
# Tests used:
# Assay type in all cases: in vivo
# soybean plants [1] = experiment: Drought tolerance of soybean plants; settings: for Root gdwt / Leaf gdwt / Leaf gfwt / Root gfwt: variety 2 under drought stress; for Root gdwt / Leaf gdwt: dry weight; for Root gdwt: surfactant 1.16; for Leaf gdwt: surfactant 2.37; for Leaf gfwt / Root gfwt: fresh weight; for Leaf gfwt: surfactant 8.01; for Root gfwt: surfactant 12.88
# Procedure: Drought tolerance is an important agronomic trait. […] Soybean seeds of two varieties (1 and 2) were planted in soil in 4.5 inch pots, 3 seeds per pot. The seeds were germinated and plants grown to the V1 or V2 growth stage. DCSA was prepared (0.36 grams/60 milliliters in 20 percent acetone with 10 percent surfactant) and the plants sprayed with the DCSA solution at a rate equal to 0.5 pounds/Acre (lb/A) or 1.0 (lb/A) at day 0 or day 3 of the experiment. Water was withheld at day 0. The plants were rated on a scale of 1-4 for drought symptoms; 1—no symptoms; 2—minor symptoms, leaf curling and wilting; 3—substantial symptoms and wilting; 4—dead. The treatments were surfactant only, 0.5 lb/A DCSA, and 1.0 lb/A DCSA. The plants were treated with a surfactant or a DCSA solution, water withheld, and drought symptoms rated 2 days after treatment (2DAT), 3 days after treatment (3DAT), and 3DAT after rehydration (water added to soil saturation and plant recovery from drought symptoms measured). Fresh leaf weight (leaf grams fresh weight, leaf gfwt), fresh root weight (root grams fresh weight, root gfwt), leaf dry weight (leaf grams dry weight, leaf gdwt), and root dry weight (root grams dry weight, root gdwt) were measured.
# Pythium ultimum = Pythium ultimum inoculation of cotton seedlings after spray; settings: same conditions kill plants not contacted with 3,6-DCSA
# Procedure: Ten-day old Roundup Ready® Flex Cotton (Event MON 88913; U.S. Publ. 20060059590) seedlings were sprayed with a mixture of Roundup Weather Max® (Monsanto Company, St. Louis, Mo.) and 3,6-DCSA (BASF). The control plants were sprayed with water only. The cotton seedlings from both treatments were inoculated with Pythium ultimum by dipping seedling into inoculum slurry, 24 hours after the spray application. The positive control plants were neither sprayed nor inoculated with P. ultimum. […] Cotton plants treated with Roundup® and DCSA were as healthy as were the plants not inoculated with P. ultimum.
# [2] = system: Xanthomonas campestris pv. malvacearum; experiment: Bacterial blight inoculation of cotton plants after DCSA spray; settings: two-week old cotton; DCSA spray 24 hours before tooth pick inoculation; unsprayed plants developed necrotic spots
# Procedure: In this example, two-week old cotton plants were sprayed with DCSA while control plants received spray application of water only. The plants were inoculated with bacterial blight pathogen (Xanthomonas campestris pv. malvacearum) about 24 hours after the DCSA spray application using a tooth pick inoculation method. As shown in the FIG. 4, the cotton plants inoculated with the bacterial pathogen but not sprayed with DCSA developed necrotic spots, typical symptoms of bacterial blight. […] The results of this experiment indicate that DCSA application reduced bacterial infection on cotton plants when inoculated with bacterial pathogen 24 hours after the DCSA spray.
# soybean plants [3] = experiment: AMPA induced yellow flash in soybean; settings: 8DAT, scale 1-3, surfactant alone 2.7
# Procedure: Yellow flash is a symptom sometimes observed in glyphosate tolerant soybeans treated with glyphosate due to the formation of AMPA (aminomethyl phosphonic acid). A study was conducted to determine if DCSA treatment would protect soybean plants from AMPA induced yellow flash symptoms. Soybean plants were grown to V1-2 growth stage and divided into 3 treatment groups, 3 pots of plants per treatment. The treatments were 0.5 lb/A DCSA, 1.0 lb/A DCSA or surfactant alone. One day after treatment, all of the plants were sprayed with 1 lb/A of AMPA (Sigma Aldrich, St. Louis, Mo.) in surfactant. […] In an aspect of the present invention, a tolerance to yellow flash is provided due to improved plant health by DCSA applied to a plant in need of yellow flash tolerance or DCSA produced in vivo by the action of DMO on dicamba in transgenic plants comprising a DMO transgene.
# soybean seeds = experiment: Soybean seed germination in DCSA solution; parameters: key: 1—low; 2—moderate; 3—high; 3+—exceptionally high; settings: N=8
# Procedure: Rapid seed germination is an important agronomic trait that reduces crop losses due to seed rot especially under cool wet conditions. Soybeans seeds of three varieties were germinated in a solution of 1, 10, or 100 μM DCSA or water at normal temperature (22° C.) or cool temperature (15° C.) and rated for seed germination at 1DAT (1 day after treatment) and 2DAT (2 days after treatment) at 22° C. or 4DAT (days after treatment) at 15° C. The germination rate was scored as 1—low, 2—moderate, 3—high for each treatment, 3+—exceptionally high, N=8.
smiles,measurement,setting,value
"O=C(O)c1c(Cl)ccc(Cl)c1O [DCSA, 3,6-dichloro salicylic acid]",average drought rating,"soybean plants [1]; soybean Variety 1, 0.5 lb/A DCSA, 2DAT, scale 1 no symptoms - 4 dead, surfactant 2",2.25
same,average drought rating,"soybean plants [1]; soybean Variety 1, 0.5 lb/A DCSA, 3DAT fb rehydration, scale 1-4, surfactant 3.25",3.75
same,average drought rating,"soybean plants [1]; soybean Variety 1, 0.5 lb/A DCSA, 3DAT, scale 1-4, surfactant 3.5",4
same,average drought rating,"soybean plants [1]; soybean Variety 1, 1.0 lb/A DCSA, 2DAT, scale 1-4, surfactant 2",1.75
same,average drought rating,"soybean plants [1]; soybean Variety 1, 1.0 lb/A DCSA, 3DAT fb rehydration, scale 1-4, surfactant 3.25",3.5
same,average drought rating,"soybean plants [1]; soybean Variety 1, 1.0 lb/A DCSA, 3DAT, scale 1-4, surfactant 3.5",3.75
same,average drought rating,"soybean plants [1]; soybean Variety 2, 0.5 lb/A DCSA, 2DAT, scale 1 no symptoms - 4 dead, surfactant 1.5",1
same,average drought rating,"soybean plants [1]; soybean Variety 2, 0.5 lb/A DCSA, 3DAT fb rehydration, scale 1-4, surfactant 3",2.5
same,average drought rating,"soybean plants [1]; soybean Variety 2, 0.5 lb/A DCSA, 3DAT, scale 1-4, surfactant 3.5",2.5
same,average drought rating,"soybean plants [1]; soybean Variety 2, 1.0 lb/A DCSA, 2DAT, scale 1-4, surfactant 1.5",1.25
same,average drought rating,"soybean plants [1]; soybean Variety 2, 1.0 lb/A DCSA, 3DAT fb rehydration, scale 1-4, surfactant 3",2.5
same,average drought rating,"soybean plants [1]; soybean Variety 2, 1.0 lb/A DCSA, 3DAT, scale 1-4, surfactant 3.5",2.5
same,Root gdwt,soybean plants [1]; 0.5 lb/A DCSA,1.25 g
same,Leaf gdwt,soybean plants [1]; 0.5 lb/A DCSA,1.43 g
same,Leaf gfwt,soybean plants [1]; 0.5 lb/A DCSA,9.45 g
same,Root gfwt,soybean plants [1]; 0.5 lb/A DCSA,13.74 g
same,Root gdwt,soybean plants [1]; 1.0 lb/A DCSA,1.34 g
same,Leaf gdwt,soybean plants [1]; 1.0 lb/A DCSA,2.20 g
same,Leaf gfwt,soybean plants [1]; 1.0 lb/A DCSA,13.94 g
same,Root gfwt,soybean plants [1]; 1.0 lb/A DCSA,15.40 g
same,survival of cotton plants after inoculation with Pythium ultimum,Pythium ultimum,survive inoculation
same,bacterial blight symptoms,[2],only localized lesions (HR response) and no increase in bacterial blight symptoms
same,Average symptoms,soybean plants [3]; 0.5 lb/A DCSA one day before 1 lb/A AMPA,3
same,Average symptoms,soybean plants [3]; 1.0 lb/A DCSA one day before 1 lb/A AMPA,1.7
same,germination rating,"soybean seeds; soybean Variety 1, 1 μM DCSA, 1DAT, 22° C.",1
same,germination rating,"soybean seeds; soybean Variety 1, 1 μM DCSA, 2DAT, 22° C.",3
same,germination rating,"soybean seeds; soybean Variety 1, 1 μM DCSA, 4 DAT, 15° C.",1
same,germination rating,"soybean seeds; soybean Variety 1, 10 μM DCSA, 1DAT, 22° C.",1
same,germination rating,"soybean seeds; soybean Variety 1, 10 μM DCSA, 2DAT, 22° C.",3
same,germination rating,"soybean seeds; soybean Variety 1, 10 μM DCSA, 4 DAT, 15° C.",3
same,germination rating,"soybean seeds; soybean Variety 1, 100 μM DCSA, 1DAT, 22° C.",3
same,germination rating,"soybean seeds; soybean Variety 1, 100 μM DCSA, 2DAT, 22° C.",3+
same,germination rating,"soybean seeds; soybean Variety 1, 100 μM DCSA, 4 DAT, 15° C.",3
same,germination rating,"soybean seeds; soybean Variety 2, 1 μM DCSA, 1DAT, 22° C.",2
same,germination rating,"soybean seeds; soybean Variety 2, 1 μM DCSA, 2DAT, 22° C.",3
same,germination rating,"soybean seeds; soybean Variety 2, 1 μM DCSA, 4 DAT, 15° C.",3
same,germination rating,"soybean seeds; soybean Variety 2, 10 μM DCSA, 1DAT, 22° C.",2
same,germination rating,"soybean seeds; soybean Variety 2, 10 μM DCSA, 2DAT, 22° C.",3
same,germination rating,"soybean seeds; soybean Variety 2, 10 μM DCSA, 4 DAT, 15° C.",3
same,germination rating,"soybean seeds; soybean Variety 2, 100 μM DCSA, 1DAT, 22° C.",3
same,germination rating,"soybean seeds; soybean Variety 2, 100 μM DCSA, 2DAT, 22° C.",3+
same,germination rating,"soybean seeds; soybean Variety 2, 100 μM DCSA, 4 DAT, 15° C.",3
same,germination rating,"soybean seeds; soybean Variety 3, 1 μM DCSA, 1DAT, 22° C.",2
same,germination rating,"soybean seeds; soybean Variety 3, 1 μM DCSA, 2DAT, 22° C.",2
same,germination rating,"soybean seeds; soybean Variety 3, 1 μM DCSA, 4 DAT, 15° C.",3
same,germination rating,"soybean seeds; soybean Variety 3, 10 μM DCSA, 1DAT, 22° C.",2
same,germination rating,"soybean seeds; soybean Variety 3, 10 μM DCSA, 2DAT, 22° C.",3
same,germination rating,"soybean seeds; soybean Variety 3, 10 μM DCSA, 4 DAT, 15° C.",2
same,germination rating,"soybean seeds; soybean Variety 3, 100 μM DCSA, 1DAT, 22° C.",1
same,germination rating,"soybean seeds; soybean Variety 3, 100 μM DCSA, 2DAT, 22° C.",3
same,germination rating,"soybean seeds; soybean Variety 3, 100 μM DCSA, 4 DAT, 15° C.",1
